Measured values published in patent publication US20250302809A1, “GLP1 PHARMACEUTICAL COMPOSITIONS” (Eli Lilly and Company, priority 2022, published 2025).

Assays:
pKa of GLP1RA = format: physicochemical; settings: weak acid
[1] = aqueous solubility across the physiologic pH range and in simulated physiological fluids; format: physicochemical; settings: across the physiologic pH range as well as in simulated physiological fluids

pKa (pKa of GLP1RA): 5.1
aqueous solubility [1]: very low
SMILES: Cc1cc(-n2nc3c(c2-n2ccn(-c4ccc5c(cnn5C)c4F)c2=O)[C@H](C)N(C(=O)c2cc4cc([C@H]5CCOC(C)(C)C5)ccc4n2[C@@]2(c4noc(=O)[nH]4)C[C@@H]2C)CC3)cc(C)c1F [GLP1RA, 3-[(1S,2S)-1-[5-[(4S)-2,2-dimethyloxan-4-yl]-2-[(4S)-2-(4-fluoro-3,5-dimethylphenyl)-3-[3-(4-fluoro-1-methylindazol-5-yl)-2-oxoimidazol-1-yl]-4-methyl-6,7-dihydro-4H-pyrazolo[4,3-c]pyridine-5-carbonyl]indol-1-yl]-2-methylcyclopropyl]-4H-1,2,4-oxadiazol-5-one]
